# Read-outs that look alike come from different tables or passages of the source.
# What was measured:
# [1] = LogD; conditions: pH 7.4; In vitro LogD
# [2] = molecular target: T1, SARS-CoV-2 nsp3-mac1 (Severe acute respiratory syndrome coronavirus 2, UniProt P0DTD1); assay: biochemical; type: biochemical; conditions: SARS-CoV-2 nsp3 macrodomain TR-FRET single point
# [3] = molecular target: T1, SARS-CoV-2 nsp3-mac1; assay: biochemical; design: SARS-CoV-2 nsp3 macrodomain TR-FRET single point, per cent inhibition, n=2
# [4] = read-out: perc_inhibition_mean, batch_name=ASAP-0000449-001
# [5] = read-out: perc_inhibition_mean, batch_name=ASAP-0000451-001
# [6] = read-out: perc_inhibition_mean, batch_name=ASAP-0000452-001
# [7] = read-out: perc_inhibition_mean, batch_name=ASAP-0000454-001
# [8] = read-out: perc_inhibition_mean, batch_name=ASAP-0000455-001
# [9] = read-out: perc_inhibition_mean, batch_name=ASAP-0000456-001
# [10] = read-out: perc_inhibition_mean, batch_name=ASAP-0000457-001
# [11] = read-out: perc_inhibition_mean, batch_name=ASAP-0000458-001
# [12] = read-out: perc_inhibition_mean, batch_name=ASAP-0000459-001
# [13] = read-out: perc_inhibition_mean, batch_name=ASAP-0000460-001
# [14] = read-out: perc_inhibition_mean, batch_name=ASAP-0000461-001
# [15] = read-out: perc_inhibition_mean, batch_name=ASAP-0000462-001
# [16] = read-out: perc_inhibition_mean, batch_name=ASAP-0000463-001
# [17] = read-out: perc_inhibition_mean, batch_name=ASAP-0000464-001
# [18] = read-out: perc_inhibition_mean, batch_name=ASAP-0000465-001
# [19] = read-out: perc_inhibition_mean, batch_name=ASAP-0000466-001
compound,measurement,setting,value
O=C(O)C[C@H](NC(=O)c1ncnc2[nH]ccc12)c1ccc(Br)cc1 [ASAP-0000136],logd,[1],0.22
Cn1nc(C(=O)N2CCC(c3ccn4ncc(C(=O)N5CCCCC5)c4c3)CC2)cc1C(=O)O [ASAP-0000449],perc_inhibition_mean,[2]; concentration 49.75 uM,42.655%
same,perc_inhibition_mean,[2]; concentration 99.5 uM,59.743%
same,inhibition at 49.75 µM,[3]; [4],42.7%
same,inhibition at 99.5 µM,[3]; [4],59.7%
O=C(O)c1ccc(C(=O)N2CCC(c3ccn4ncc(C(=O)N5CCCCC5)c4c3)CC2)o1 [ASAP-0000451],perc_inhibition_mean,[2]; concentration 49.75 uM,40.495%
same,perc_inhibition_mean,[2]; concentration 99.5 uM,58.121%
same,inhibition at 49.75 µM,[3]; [5],40.5%
same,inhibition at 99.5 µM,[3]; [5],58.1%
CC(C)[C@@H](Nc1ncnc2[nH]ccc12)C(F)F [ASAP-0000452],perc_inhibition_mean,[2]; concentration 49.75 uM,81.614%
same,perc_inhibition_mean,[2]; concentration 99.5 uM,91.659%
same,inhibition at 49.75 µM,[3]; [6],81.6%
same,inhibition at 99.5 µM,[3]; [6],91.7%
CC(C)[C@@H]1[C@H](O)CCN1c1ncnc2[nH]ccc12 [ASAP-0000454],perc_inhibition_mean,[2]; concentration 49.75 uM,17.696%
same,perc_inhibition_mean,[2]; concentration 99.5 uM,32.152%
same,inhibition at 49.75 µM,[3]; [7],17.7%
same,inhibition at 99.5 µM,[3]; [7],32.2%
CC(C)[C@@H](Nc1ncnc2[nH]ccc12)c1cccs1 [ASAP-0000455],perc_inhibition_mean,[2]; concentration 49.75 uM,84.659%
same,perc_inhibition_mean,[2]; concentration 99.5 uM,89.893%
same,inhibition at 49.75 µM,[3]; [8],84.7%
same,inhibition at 99.5 µM,[3]; [8],89.9%
O=C(O)c1cnc(C(=O)N2CCC(c3ccn4ncc(C(=O)N5CCCCC5)c4c3)CC2)cn1 [ASAP-0000456],perc_inhibition_mean,[2]; concentration 49.75 uM,27.543%
same,perc_inhibition_mean,[2]; concentration 99.5 uM,46.435%
same,inhibition at 49.75 µM,[3]; [9],27.5%
same,inhibition at 99.5 µM,[3]; [9],46.4%
Cn1nc(C(=O)O)cc1C(=O)N1CCC(c2ccn3ncc(C(=O)N4CCCCC4)c3c2)CC1 [ASAP-0000457],perc_inhibition_mean,[2]; concentration 49.75 uM,34.252%
same,perc_inhibition_mean,[2]; concentration 99.5 uM,52.667%
same,inhibition at 49.75 µM,[3]; [10],34.3%
same,inhibition at 99.5 µM,[3]; [10],52.7%
O=C(O)c1ccc2c(c1)ncn2-c1ccc(CNC(=O)c2ncnc3[nH]ccc23)cc1 [ASAP-0000458],perc_inhibition_mean,[2]; concentration 49.75 uM,-33.429%
same,perc_inhibition_mean,[2]; concentration 99.5 uM,-4.649%
same,inhibition at 49.75 µM,[3]; [11],-33.4%
same,inhibition at 99.5 µM,[3]; [11],-4.65%
O=C(C[C@@H](NC(=O)c1ncnc2[nH]ccc12)C1CC1)NCc1ccc(C(=O)O)cc1 [ASAP-0000459],perc_inhibition_mean,[2]; concentration 49.75 uM,-9.862%
same,perc_inhibition_mean,[2]; concentration 99.5 uM,0.768%
same,inhibition at 49.75 µM,[3]; [12],-9.86%
same,inhibition at 99.5 µM,[3]; [12],0.768%
C[C@@H](NC(=O)c1ncnc2[nH]ccc12)c1ncc(C(=O)O)c(=O)[nH]1 [ASAP-0000460],perc_inhibition_mean,[2]; concentration 49.75 uM,4.872%
same,perc_inhibition_mean,[2]; concentration 99.5 uM,10.734%
same,inhibition at 49.75 µM,[3]; [13],4.87%
same,inhibition at 99.5 µM,[3]; [13],10.7%
O=C(N[C@@H](C(=O)O)[C@@H](O)Cc1ccccc1)c1ncnc2[nH]ccc12 [ASAP-0000461],perc_inhibition_mean,[2]; concentration 49.75 uM,3.789%
same,perc_inhibition_mean,[2]; concentration 99.5 uM,12.267%
same,inhibition at 49.75 µM,[3]; [14],3.79%
same,inhibition at 99.5 µM,[3]; [14],12.3%
CC(C)[C@@H](Nc1ncnc2[nH]ccc12)C(N)=O [ASAP-0000462],perc_inhibition_mean,[2]; concentration 49.75 uM,64.403%
same,perc_inhibition_mean,[2]; concentration 99.5 uM,77.698%
same,inhibition at 49.75 µM,[3]; [15],64.4%
same,inhibition at 99.5 µM,[3]; [15],77.7%
Cn1cc([C@@H](Nc2ncnc3[nH]ccc23)C2CCC2)cn1 [ASAP-0000463],perc_inhibition_mean,[2]; concentration 49.75 uM,78.069%
same,perc_inhibition_mean,[2]; concentration 99.5 uM,91.032%
same,inhibition at 49.75 µM,[3]; [16],78.1%
same,inhibition at 99.5 µM,[3]; [16],91%
C[C@@H](Cc1ccc(Cl)s1)Nc1ccc([C@@H](CC(=O)O)NC(=O)c2c[nH]c3ncncc23)cc1 [ASAP-0000464],perc_inhibition_mean,[2]; concentration 49.75 uM,-1.543%
same,perc_inhibition_mean,[2]; concentration 99.5 uM,1.952%
same,inhibition at 49.75 µM,[3]; [17],-1.54%
same,inhibition at 99.5 µM,[3]; [17],1.95%
CC(C)[C@H]1CN(c2ncnc3[nH]ccc23)[C@H]1C(C)C [ASAP-0000465],perc_inhibition_mean,[2]; concentration 49.75 uM,0.348%
same,perc_inhibition_mean,[2]; concentration 99.5 uM,-2.201%
same,inhibition at 49.75 µM,[3]; [18],0.348%
same,inhibition at 99.5 µM,[3]; [18],-2.2%
CC(C)[C@@H](CCN(C)C(=O)c1nn2cccnc2c1Cl)Nc1ncnc2[nH]ccc12 [ASAP-0000466],perc_inhibition_mean,[2]; concentration 49.75 uM,0.844%
same,perc_inhibition_mean,[2]; concentration 99.5 uM,1.645%
same,inhibition at 49.75 µM,[3]; [19],0.844%
same,inhibition at 99.5 µM,[3]; [19],1.65%
